Data reported in patent US20240299412A1, “DRUG FORMULATIONS OF 4-(3,3-DIFLUORO-2,2-DIMETHYL-PROPANOYL) -3,5-DIHYDRO-2H-PYRIDO[3,4-f][1,4]OXAZEPINE-9-CARBONITRILE” (Genzyme Corporation, priority 2023, published 2024).

Columns and labels:
[1] = Kinetic solubility in bio-relevant media and H2O; format: physicochemical; settings: 37° C.; for Final Form: residual solid; for solubility at 1 h / solubility at 4 h / solubility at 24 h: thermodynamic from solid, Turbid
Procedure: Solids were suspended in FaSSIF, FeSSIF, SGF and H2O with target conc. of ˜10 mg/mL. The suspensions were agitated on a rolling incubator at 25 rpm (in the incubator set at 37° C.) for 1, 4 and 24 hrs. At each time point, 1 mL of the suspension was pipetted out for centrifugation at 15000 rpm (3 min) and filtration through 0.45 μm membrane to obtain supernatant for HPLC solubility and pH tests, the residual solids were analyzed by XRPD.

[2] = Physical and chemical stability of Form A (solid storage); format: physicochemical
Procedure: To evaluate the physical and chemical stability, Compound (1) Form A was stored in 3 conditions (40° C./75% RH; 25° C./60% RH; and 60° C.) for one and four weeks.

[3] = 40° C./75% RH, 25° C./60% RH, 60° C., one and four weeks

CC(C)(C(=O)N1CCOc2c(C#N)cncc2C1)C(F)F [Form A, 4-(3,3-difluoro-2,2-dimethyl-propanoyl)-3,5-dihydro-2H-pyrido[3,4-f][1,4]oxazepine-9-carbonitrile]
1100 µg/mL: solubility at 1 h ([1]; FaSSIF (pH 6.5), 1 hr, final pH 6.4) | solubility at 4 h ([1]; FaSSIF (pH 6.5), 4 hr, final pH 6.6) | solubility at 1 h ([1]; FeSSIF (pH 5.0), 1 hr, final pH 5.6) | solubility at 1 h ([1]; water, H2O (pH 6.5), 1 hr, final pH 8.5) | solubility at 4 h ([1]; water, H2O (pH 6.5), 4 hr, final pH 8.4) | solubility at 24 h ([1]; water, H2O (pH 6.5), 24 hr, final pH 8.7)
99.90 % Area: API (RRT 1.00) % Area ([2]; 1 week, 60° C.) | API (RRT 1.00) % Area ([2]; 4 weeks, 25° C./60% RH) | API (RRT 1.00) % Area ([2]; 4 weeks, 40° C./75% RH) | API (RRT 1.00) % Area ([2]; 4 weeks, 60° C.)
100.0%: Purity VS. initial (%) ([2]; 1 week, 25° C./60% RH) | Purity VS. initial (%) ([2]; 1 week, 40° C./75% RH) | Purity VS. initial (%) ([2]; 1 week, 60° C.) | Purity VS. initial (%) ([2]; 4 weeks, 25° C./60% RH) | Purity VS. initial (%) ([2]; 4 weeks, 40° C./75% RH) | Purity VS. initial (%) ([2]; 4 weeks, 60° C.)
2300 µg/mL: solubility at 1 h ([1]; simulated gastric fluid, SGF (pH 1.8), 1 hr, final pH 1.8)
0.10 % Area: Imp.1 (RRT 0.68) % Area ([2]; 1 week, 60° C.) | Imp.1 (RRT 0.68) % Area ([2]; 4 weeks, 25° C./60% RH) | Imp.1 (RRT 0.68) % Area ([2]; 4 weeks, 40° C./75% RH) | Imp.1 (RRT 0.68) % Area ([2]; 4 weeks, 60° C.)
2400 µg/mL: solubility at 4 h ([1]; simulated gastric fluid, SGF (pH 1.8), 4 hr, final pH 2.3)
99.89 % Area: API (RRT 1.00) % Area ([2]; 1 week, 40° C./75% RH) | API (RRT 1.00) % Area ([2]; Initial)
no form change: form change on storage (XRPD) [2, 3]
White powder: Description ([2]; 1 week, 25° C./60% RH) | Description ([2]; 1 week, 40° C./75% RH) | Description ([2]; 1 week, 60° C.) | Description ([2]; 4 weeks, 25° C./60% RH) | Description ([2]; 4 weeks, 40° C./75% RH) | Description ([2]; 4 weeks, 60° C.)
no obvious HPLC purity change: HPLC purity change on storage [2, 3]
2500 µg/mL: solubility at 24 h ([1]; simulated gastric fluid, SGF (pH 1.8), 24 hr, final pH 2.2)
99.92 % Area: API (RRT 1.00) % Area ([2]; 1 week, 25° C./60% RH)
Form A: Final Form ([1]; FeSSIF (pH 5.0), 1 hr) | Final Form ([1]; FeSSIF (pH 5.0), 4 hr) | Final Form ([1]; FeSSIF (pH 5.0), 24 hr) | Final Form ([1]; H2O (pH 6.5), 1 hr) | Final Form ([1]; H2O (pH 6.5), 4 hr) | Final Form ([1]; H2O (pH 6.5), 24 hr) | Final Form ([1]; SGF (pH 1.8), 1 hr) | Final Form ([1]; SGF (pH 1.8), 4 hr) | Final Form ([1]; SGF (pH 1.8), 24 hr) | Final Form ([2]; 1 week, 25° C./60% RH) | Final Form ([2]; 1 week, 40° C./75% RH) | Final Form ([2]; 1 week, 60° C.) | Final Form ([2]; 4 weeks, 25° C./60% RH) | Final Form ([2]; 4 weeks, 40° C./75% RH) | Final Form ([2]; 4 weeks, 60° C.)
0.08 % Area: Imp.1 (RRT 0.68) % Area ([2]; 1 week, 25° C./60% RH)
0.11 % Area: Imp.1 (RRT 0.68) % Area ([2]; 1 week, 40° C./75% RH) | Imp.1 (RRT 0.68) % Area ([2]; Initial)
1200 µg/mL: solubility at 24 h ([1]; FaSSIF (pH 6.5), 24 hr, final pH 6.6) | solubility at 4 h ([1]; FeSSIF (pH 5.0), 4 hr, final pH 5.6) | solubility at 24 h ([1]; FeSSIF (pH 5.0), 24 hr, final pH 5.6)
